Patent publication EP0655506B1 (priority 1994, dated 1995)

Key:
Assay in all cases: SDS activity gel analysis, incorporation of ddNMP relative to dNMP (Example 2)
Type in all cases: biochemical
[1] = target: T1, Taq DNA polymerase mutant Tqa C-Q5 (F667Y), R R A A K T I N Y G V L Y G (Thermus aquaticus, UniProt P19821, F667Y); conditions: renatured enzyme in gel; 1.5 µM 4dNTPs with or without 30 µM ddTTP; 70 °C 2 hr
T1 construct: the large fragment of Taq DNA polymerase (KlenTaq or _Taq DNA polymerase); made in house; crude lysate, renatured in gel
Description: (§1) Mutant DNA polymerases are screened for their ability to incorporate dideoxynucleotides by SDS activity gel analysis. The procedure is a modification of that described by Spanos and Hübscher 91 Methods in Enzymology 263, 1983 and Karawya et al. 135 Analytical Biochemistry 318, 1983. Briefly, 10 ml of cells are induced for 4 to 6 hours and then pelleted. The cell pellet is resuspended in 0.3 ml 25 mM Tris HCl, pH 7.0, 5 mM EDTA. 20 µl of the resuspended cells are mixed with 40 µl of a solution of 1% SDS (sodium dodecyl sulfate), 2% mercaptoethanol, 30 % glycerol, 0.04% bromphenol blue, and 100 mM TrisHCl, pH 6.8. The mixtures are incubated at 37 °C for 5 min, and then 20 µl aliquots are loaded in duplicate onto two SDS polyacrylamide gels. The SDS polyacrylamide gels consist of a resolving gel that contains 8% polyacrylamide, 0.27% bisacrylamide, 190 mM TrisHCl, pH 8.8, 0.05% SDS, and 25 µg/ml denatured salmon sperm DNA, and a stacking gel that consists of 5% polyacrylamide, 0.17% bisacrylamide, 150 mM TrisHCl, pH 6.8, and 0.1% SDS. The two gels are electrophoresed at 100 V for 13 hr at a constant temperature of 13 °C in an electrophoresis buffer consisting of 190 mM TrisHCl and pH 8.8, 0.05% SDS.
(§2) After electrophoresis, the gels are washed over 8 hr in 4 changes of 500 ml each of Renaturation Buffer (50 mM Tris.HCl, pH 7.5, 5 mM magnesium acetate, 1 mM dithiothreitol, 40 mM KCI, 400 µg/ml bovine serum albumin, 16% glycerol and 0.95 mM EDTA) at 4 °C.
(§3) The renatured proteins are assayed for DNA polymerase activity by incubating each of the two gels in 6 ml of Renaturation Buffer, 1.5 µM 4dNTPs, 4 µl of [a-^32P]dATP (800 Ci/mmol, 10 mCi/ml), and 80 µg of purified thioredoxin. One of the mixtures also contains 30 µM ddTTP (a 20-fold molar excess over dTTP). The mixtures are incubated for 4 hr at 37 °C (70 °C for 2 hr for thermophilic DNA polymerases).
(§4) After incubation the gels are washed for 8 hr against four changes of 5% trichloracetic acid and 1% sodium pyrophosphate. The gels are then dried and autoradiographed.
(§5) To determine whether a mutant DNA polymerase is discriminating more or less against ddTTP, the intensities of the radioactive bands are compared on the two gels that were incubated in the presence and absence of ddTTP, and the ratio of the signal in the two bands for the unmodified DNA polymerase is compared with the ratio of the signal in the two bands for each of the mutants.

[2] = target: T2, Taq DNA polymerase mutant Taq C-Q1, R D N A K T I N F G V L Y G (Thermus aquaticus, UniProt P19821, A661N/R660D); conditions: renatured enzyme in gel; 1.5 µM 4dNTPs with or without 30 µM ddTTP; 70 °C 2 hr
T2 construct: the large fragment of Taq DNA polymerase (KlenTaq or _Taq DNA polymerase); made in house; crude lysate, renatured in gel
Description: as §1, §2, §3, §4, §5

[3] = target: T3, E. coli DNA polymerase I mutant Pol I C-K2, R R S A K T F I Y G L I Y G (Escherichia coli, UniProt P00582, A759T/F762Y/I760F/N761I); conditions: renatured enzyme in gel; 1.5 µM 4dNTPs with or without 30 µM ddTTP; 37 °C 4 hr
T3 construct: the large fragment of E. coli DNA polymerase I (Klenow fragment); made in house; crude lysate, renatured in gel
Description: as §1, §2, §3, §4, §5

[4] = target: T4, Taq DNA polymerase mutant Taq C-Q4, R R A A K T I I F G V L Y G (Thermus aquaticus, UniProt P19821, N666I); conditions: renatured enzyme in gel; 1.5 µM 4dNTPs with or without 30 µM ddTTP; 70 °C 2 hr
T4 construct: the large fragment of Taq DNA polymerase (KlenTaq or _Taq DNA polymerase); made in house; crude lysate, renatured in gel
Description: as §1, §2, §3, §4, §5

[5] = target: T5, E. coli DNA polymerase I mutant Pol I C-K6 (F762Y), R R S A K A I N Y G L I Y G (Escherichia coli, UniProt P00582, F762Y)
T5 construct: the large fragment of E. coli DNA polymerase I (Klenow fragment); made in house; crude lysate, renatured in gel
Description: as §1, §2, §3, §4, §5

[6] = target: T6, E. coli DNA polymerase I mutant Pol I C-K3, R R S A K T F N F G L I Y G (Escherichia coli, UniProt P00582, A759T/I760F); conditions: renatured enzyme in gel; 1.5 µM 4dNTPs with or without 30 µM ddTTP; 37 °C 4 hr
T6 construct: the large fragment of E. coli DNA polymerase I (Klenow fragment); made in house; crude lysate, renatured in gel
Description: as §1, §2, §3, §4, §5

[7] = target: T7, Taq DNA polymerase mutant Taq C-Q2, R R A A K T F I Y G F L Y G (Thermus aquaticus, UniProt P19821, F667Y/I665F/N666I/V669F); conditions: renatured enzyme in gel; 1.5 µM 4dNTPs with or without 30 µM ddTTP; 70 °C 2 hr
T7 construct: the large fragment of Taq DNA polymerase (KlenTaq or _Taq DNA polymerase); made in house; crude lysate, renatured in gel
Description: as §1, §2, §3, §4, §5

[8] = target: T8, E. coli DNA polymerase I, wild type (Pol I WT), R R S A K A I N F G L I Y G (Escherichia coli, UniProt P00582)
T8 construct: the large fragment of E. coli DNA polymerase I (Klenow fragment); made in house; crude lysate, renatured in gel
Description: as §1, §2, §3, §4, §5

[9] = target: T9, Taq DNA polymerase mutant Taq C-Q3, R R A A K T I I Y G V L Y G (Thermus aquaticus, UniProt P19821, F667Y/N666I); conditions: renatured enzyme in gel; 1.5 µM 4dNTPs with or without 30 µM ddTTP; 70 °C 2 hr
T9 construct: the large fragment of Taq DNA polymerase (KlenTaq or _Taq DNA polymerase); made in house; crude lysate, renatured in gel
Description: as §1, §2, §3, §4, §5

[10] = target: T10, E. coli DNA polymerase I mutant Pol I C-K5, R R S A K A I I F G L I Y G (Escherichia coli, UniProt P00582, N761I); conditions: renatured enzyme in gel; 1.5 µM 4dNTPs with or without 30 µM ddTTP; 37 °C 4 hr
T10 construct: the large fragment of E. coli DNA polymerase I (Klenow fragment); made in house; crude lysate, renatured in gel
Description: as §1, §2, §3, §4, §5

[11] = target: T11, E. coli DNA polymerase I mutant Pol I C-K1, R D N A K T F I Y G F L Y G (Escherichia coli, UniProt P00582, A759T/F762Y/I760F/I765L/L764F/N761I/R755D/S756N); conditions: renatured enzyme in gel; 1.5 µM 4dNTPs with or without 30 µM ddTTP; 37 °C 4 hr
T11 construct: the large fragment of E. coli DNA polymerase I (Klenow fragment); made in house; crude lysate, renatured in gel
Description: as §1, §2, §3, §4, §5

[12] = target: T12, Taq DNA polymerase, wild type (Taq WT), R R A A K T I N F G V L Y G (Thermus aquaticus, UniProt P19821); conditions: renatured enzyme in gel; 1.5 µM 4dNTPs with or without 30 µM ddTTP; 70 °C 2 hr
T12 construct: the large fragment of Taq DNA polymerase (KlenTaq or _Taq DNA polymerase); made in house; crude lysate, renatured in gel
Description: as §1, §2, §3, §4, §5

[13] = target: T13, E. coli DNA polymerase I mutant Pol I C-K4, R R S A K A I I Y G L I Y G (Escherichia coli, UniProt P00582, F762Y/N761I); conditions: renatured enzyme in gel; 1.5 µM 4dNTPs with or without 30 µM ddTTP; 37 °C 4 hr
T13 construct: the large fragment of E. coli DNA polymerase I (Klenow fragment); made in house; crude lysate, renatured in gel
Description: as §1, §2, §3, §4, §5

[14] = renatured enzyme in gel, 1.5 µM 4dNTPs with or without 30 µM ddTTP, 37 °C 4 hr

T5 sequence (P00582 324-928 F762Y): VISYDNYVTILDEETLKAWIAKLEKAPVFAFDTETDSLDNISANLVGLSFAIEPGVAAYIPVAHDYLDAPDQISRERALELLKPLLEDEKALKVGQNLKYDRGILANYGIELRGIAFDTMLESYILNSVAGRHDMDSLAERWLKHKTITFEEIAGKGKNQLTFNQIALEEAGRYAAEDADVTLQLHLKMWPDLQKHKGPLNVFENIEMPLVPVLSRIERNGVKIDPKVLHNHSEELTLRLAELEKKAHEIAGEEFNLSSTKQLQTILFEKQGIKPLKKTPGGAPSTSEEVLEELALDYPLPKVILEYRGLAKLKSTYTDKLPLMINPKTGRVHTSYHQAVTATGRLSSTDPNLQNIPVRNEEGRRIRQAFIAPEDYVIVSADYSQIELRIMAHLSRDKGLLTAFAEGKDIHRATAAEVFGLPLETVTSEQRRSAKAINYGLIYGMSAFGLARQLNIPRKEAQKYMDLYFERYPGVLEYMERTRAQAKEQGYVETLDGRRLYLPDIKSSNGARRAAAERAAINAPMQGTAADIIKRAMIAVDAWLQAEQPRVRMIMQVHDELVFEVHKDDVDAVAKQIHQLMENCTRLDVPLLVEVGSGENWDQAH
T8 sequence (P00582 324-928): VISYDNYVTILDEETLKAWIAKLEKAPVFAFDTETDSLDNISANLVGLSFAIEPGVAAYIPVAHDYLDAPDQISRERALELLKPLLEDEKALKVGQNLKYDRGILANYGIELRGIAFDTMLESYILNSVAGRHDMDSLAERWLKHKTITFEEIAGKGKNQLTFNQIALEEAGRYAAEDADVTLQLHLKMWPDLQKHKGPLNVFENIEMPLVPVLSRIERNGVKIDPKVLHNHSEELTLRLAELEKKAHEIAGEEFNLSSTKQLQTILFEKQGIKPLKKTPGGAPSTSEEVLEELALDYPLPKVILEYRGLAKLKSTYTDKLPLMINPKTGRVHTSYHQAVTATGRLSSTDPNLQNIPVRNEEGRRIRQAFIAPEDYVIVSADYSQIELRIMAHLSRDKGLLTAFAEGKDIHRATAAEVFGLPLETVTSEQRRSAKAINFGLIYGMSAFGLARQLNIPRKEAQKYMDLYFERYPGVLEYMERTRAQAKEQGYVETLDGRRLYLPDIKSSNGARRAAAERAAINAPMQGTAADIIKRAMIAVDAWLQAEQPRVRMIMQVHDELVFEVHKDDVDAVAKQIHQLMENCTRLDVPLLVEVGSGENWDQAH
T4 sequence (P19821 236-832 N666I): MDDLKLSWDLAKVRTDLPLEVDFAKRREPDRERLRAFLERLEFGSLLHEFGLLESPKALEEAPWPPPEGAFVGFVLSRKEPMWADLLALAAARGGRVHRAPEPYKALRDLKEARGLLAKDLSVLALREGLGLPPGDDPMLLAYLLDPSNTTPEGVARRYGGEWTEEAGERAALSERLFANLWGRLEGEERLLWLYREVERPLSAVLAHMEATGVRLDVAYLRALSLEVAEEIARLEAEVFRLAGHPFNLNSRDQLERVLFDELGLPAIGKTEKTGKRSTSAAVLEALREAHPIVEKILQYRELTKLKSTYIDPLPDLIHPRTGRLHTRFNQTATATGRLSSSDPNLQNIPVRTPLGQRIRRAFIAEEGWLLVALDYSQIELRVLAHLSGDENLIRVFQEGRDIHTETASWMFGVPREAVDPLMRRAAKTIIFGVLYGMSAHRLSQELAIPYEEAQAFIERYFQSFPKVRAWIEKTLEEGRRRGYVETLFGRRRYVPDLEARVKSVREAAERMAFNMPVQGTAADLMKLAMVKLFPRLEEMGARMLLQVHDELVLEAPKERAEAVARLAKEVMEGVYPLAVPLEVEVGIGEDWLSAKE
T9 sequence (P19821 236-832 N666I/F667Y): as the sequence (P19821 236-832 N666I) above, with F432Y counted along it
T6 sequence (P00582 324-928 A759T/I760F): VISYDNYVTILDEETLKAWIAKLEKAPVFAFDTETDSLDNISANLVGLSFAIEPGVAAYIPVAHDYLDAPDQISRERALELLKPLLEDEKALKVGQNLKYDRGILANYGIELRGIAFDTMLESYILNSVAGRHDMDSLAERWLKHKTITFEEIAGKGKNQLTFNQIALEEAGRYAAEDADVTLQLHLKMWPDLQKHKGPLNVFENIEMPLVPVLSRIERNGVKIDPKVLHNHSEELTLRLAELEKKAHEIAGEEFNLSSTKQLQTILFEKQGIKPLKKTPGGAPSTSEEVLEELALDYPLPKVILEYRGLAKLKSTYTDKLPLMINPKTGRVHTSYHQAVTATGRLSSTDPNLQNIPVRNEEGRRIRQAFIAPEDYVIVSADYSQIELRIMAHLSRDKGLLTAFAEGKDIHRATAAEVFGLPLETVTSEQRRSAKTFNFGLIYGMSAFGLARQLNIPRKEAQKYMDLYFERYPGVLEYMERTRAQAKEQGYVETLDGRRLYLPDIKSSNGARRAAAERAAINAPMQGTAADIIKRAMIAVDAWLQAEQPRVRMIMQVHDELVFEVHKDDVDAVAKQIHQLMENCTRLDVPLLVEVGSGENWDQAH
T1 sequence (P19821 236-832 F667Y): as the sequence (P19821 236-832 N666I) above, with I431N, F432Y counted along it
T11 sequence (P00582 324-928 R755D/S756N/A759T/I760F/N761I/F762Y/L764F/I765L): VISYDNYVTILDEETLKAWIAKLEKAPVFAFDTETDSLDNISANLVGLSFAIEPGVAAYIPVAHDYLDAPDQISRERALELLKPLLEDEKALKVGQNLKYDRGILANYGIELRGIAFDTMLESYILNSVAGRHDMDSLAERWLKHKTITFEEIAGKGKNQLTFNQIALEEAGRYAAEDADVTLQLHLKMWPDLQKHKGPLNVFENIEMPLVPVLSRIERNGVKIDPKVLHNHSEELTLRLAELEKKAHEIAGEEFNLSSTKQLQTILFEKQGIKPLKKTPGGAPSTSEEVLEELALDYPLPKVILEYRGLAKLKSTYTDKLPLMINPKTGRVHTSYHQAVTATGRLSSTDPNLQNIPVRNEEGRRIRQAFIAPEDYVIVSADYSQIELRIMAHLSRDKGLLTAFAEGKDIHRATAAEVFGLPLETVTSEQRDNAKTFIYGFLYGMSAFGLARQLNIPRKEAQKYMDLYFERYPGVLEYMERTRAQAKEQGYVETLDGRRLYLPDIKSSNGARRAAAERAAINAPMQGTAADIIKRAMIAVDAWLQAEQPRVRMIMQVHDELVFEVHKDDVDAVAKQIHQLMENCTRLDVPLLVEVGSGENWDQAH
T13 sequence (P00582 324-928 N761I/F762Y): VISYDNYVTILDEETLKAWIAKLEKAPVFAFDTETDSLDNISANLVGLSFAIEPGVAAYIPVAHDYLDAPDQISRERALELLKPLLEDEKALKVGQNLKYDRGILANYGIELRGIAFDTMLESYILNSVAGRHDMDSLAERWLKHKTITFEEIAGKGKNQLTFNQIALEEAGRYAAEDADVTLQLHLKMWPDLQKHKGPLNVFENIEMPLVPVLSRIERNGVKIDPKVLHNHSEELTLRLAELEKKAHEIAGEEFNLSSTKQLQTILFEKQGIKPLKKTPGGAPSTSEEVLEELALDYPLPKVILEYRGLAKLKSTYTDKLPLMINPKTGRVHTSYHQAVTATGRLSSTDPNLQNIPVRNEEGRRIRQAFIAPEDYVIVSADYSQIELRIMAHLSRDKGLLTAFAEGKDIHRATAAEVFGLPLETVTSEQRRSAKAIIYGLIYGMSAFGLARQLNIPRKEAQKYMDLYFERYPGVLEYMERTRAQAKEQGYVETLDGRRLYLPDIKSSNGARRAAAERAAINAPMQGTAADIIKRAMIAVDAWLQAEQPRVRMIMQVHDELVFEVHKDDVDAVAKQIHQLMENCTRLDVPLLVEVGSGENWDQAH
T3 sequence (P00582 324-928 A759T/I760F/N761I/F762Y): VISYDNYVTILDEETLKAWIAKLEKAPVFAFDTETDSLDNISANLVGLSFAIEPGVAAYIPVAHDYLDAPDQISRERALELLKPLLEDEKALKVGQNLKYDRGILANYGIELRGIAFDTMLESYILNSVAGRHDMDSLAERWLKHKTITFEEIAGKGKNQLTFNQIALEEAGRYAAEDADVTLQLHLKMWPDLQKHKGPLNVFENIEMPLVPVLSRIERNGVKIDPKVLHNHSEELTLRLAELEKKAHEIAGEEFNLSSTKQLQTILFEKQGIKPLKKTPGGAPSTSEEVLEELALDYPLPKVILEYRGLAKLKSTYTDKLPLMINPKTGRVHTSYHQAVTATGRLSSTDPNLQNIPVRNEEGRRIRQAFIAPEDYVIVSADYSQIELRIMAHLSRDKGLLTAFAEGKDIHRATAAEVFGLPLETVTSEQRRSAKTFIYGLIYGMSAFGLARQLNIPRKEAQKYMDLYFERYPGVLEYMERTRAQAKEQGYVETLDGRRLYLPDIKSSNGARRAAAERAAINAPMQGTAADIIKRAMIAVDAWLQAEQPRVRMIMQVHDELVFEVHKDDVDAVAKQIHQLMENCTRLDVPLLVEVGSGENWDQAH
T12 sequence (P19821 236-832 limits assumed): as the sequence (P19821 236-832 N666I) above, with I431N counted along it
T10 sequence (P00582 324-928 N761I): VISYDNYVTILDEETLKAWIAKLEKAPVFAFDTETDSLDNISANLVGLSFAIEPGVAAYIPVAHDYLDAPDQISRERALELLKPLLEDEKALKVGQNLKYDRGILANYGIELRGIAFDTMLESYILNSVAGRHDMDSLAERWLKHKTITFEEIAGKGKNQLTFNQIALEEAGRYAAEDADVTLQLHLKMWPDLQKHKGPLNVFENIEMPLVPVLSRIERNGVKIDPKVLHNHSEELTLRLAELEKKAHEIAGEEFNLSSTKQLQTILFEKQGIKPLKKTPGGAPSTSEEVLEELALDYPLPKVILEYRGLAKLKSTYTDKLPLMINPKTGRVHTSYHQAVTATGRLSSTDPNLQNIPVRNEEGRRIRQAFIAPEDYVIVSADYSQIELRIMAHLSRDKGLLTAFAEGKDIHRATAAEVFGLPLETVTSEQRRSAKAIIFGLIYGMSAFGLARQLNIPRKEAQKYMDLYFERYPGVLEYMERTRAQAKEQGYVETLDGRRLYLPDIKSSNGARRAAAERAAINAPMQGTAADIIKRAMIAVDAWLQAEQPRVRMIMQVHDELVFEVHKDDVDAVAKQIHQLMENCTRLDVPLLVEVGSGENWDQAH
T2 sequence (P19821 236-832 R660D/A661N): as the sequence (P19821 236-832 N666I) above, with R425D, A426N, I431N counted along it

SMILES: Cc1cn([C@H]2CC[C@@H](COP(=O)(O)OP(=O)(O)OP(=O)(O)O)O2)c(=O)[nH]c1=O [ddTTP]
- ddNTP Discrimination [1]: Low
- ddNTP Discrimination [2]: High
- ddNTP Discrimination [3]: Low
- ddNTP Discrimination [4]: High
- activity at 30 µM ([5]; read-out: intensity of the bands in the presence of ddTTP relative to the absence of ddTTP): < 5%
- ddNTP Discrimination [5, 14]: Low
- ddNTP Discrimination [6]: High
- ddNTP Discrimination [7]: Low
- intensity of the bands in the presence versus the absence of ddTTP ([8]; 30 µM ddTTP (20-fold molar excess over dTTP), 1.5 µM 4dNTPs, within a factor of two): approximately the same intensity
- ddNTP Discrimination [8, 14]: High
- ddNTP Discrimination [9]: Low
- ddNTP Discrimination [10]: High
- ddNTP Discrimination [11]: Low
- ddNTP Discrimination [12]: High
- ddNTP Discrimination [13]: Low
